Values after ≈ are worked out from the molar mass of the structure shown. Peptide text beside a SMILES is read from it.
Columns and labels:
[1] = tested on: E. coli BL21(DE3)-NDM-1 (ndm-1-carrying recombinant E. coli); assay type: cell-based
Description: (§1) Bacterial strains were purchased from the American Type Culture Collection (ATCC). All clinical strains were isolated from human clinical specimens by the Medical Laboratory Center of Zhongda Hospital (Nanjing, Jiangsu, China). Ndm-1, tem-1, ctx-m-1, shv-1 -carrying bacteria were constructed as previously described. The recombinant bacteria carrying drug-resistant genes were prepared in LB nutrient and induced by IPTG (1 mM) for 4 h before text. Other bacterial strains were respectively prepared in MHB and Columbia Blood Agar Base.
(§2) A standard micro-broth serial dilution assay was used to measure MIC of peptides. MIC was obtained by a microplate reader at 600 nm. MBC was determined as previously described.

[2] = tested on: E. coli, Penicillin-, Imipenem- and Ceftazidime- resistant clinical isolates; assay type: cell-based
Description: as §1, §2

Helicobacterpylori SS1 = assay type: cell-based; conditions: Helicobacterpylori SS1
Description: as §1, §2

[3] = tested on: K. pneumonia, Penicillin-, Imipenem- and Ceftazidime- resistant clinical isolates; assay type: cell-based
Description: as §1, §2

[4] = tested on: P. aeruginosa, Penicillin-, Imipenem- and Ceftazidime- resistant clinical isolates; assay type: cell-based
Description: as §1, §2

[5] = tested on: S. aureus, Amoxicillin-, Cephalexin- and Levofloxacin- resistant clinical isolates; assay type: cell-based
Description: as §1, §2

[6] = tested on: S. epidermidis, Amoxicillin-, Cephalexin- and Levofloxacin- resistant clinical isolates; assay type: cell-based
Description: as §1, §2

[7] = tested on: S. pneumoniae, Amoxicillin-, Cephalexin- and Levofloxacin- resistant clinical isolates; assay type: cell-based
Description: as §1, §2

[8] = tested on: S. pyogenes, Penicillin-, Erythromycin- and Levofloxacin- resistant clinical isolates; assay type: cell-based
Description: as §1, §2

[9] = tested on: MRSA, Methicillin-resistant clinical isolates; assay type: cell-based, Staphylococcus aureus
Description: as §1, §2

murine spleen cells = test: Cytotoxicity, MTT; assay type: cell-based; conditions: 48 h
Description: The cytotoxicity of peptides towards murine spleen cells (obtained from healthy murine with aseptic technique) and other eukaryotic cells (HaCaT, GES-1, human L02, B16F10, A549, H460) were determined by routine MTT method. Cells were incubated with serially diluted peptides (final concentrations: 1.563, 3.125, 6.25, 12.5, 25, 50, 100 and 200 μM) for 48 h.

C57BL/6 mice = test: Acute toxicity in mice; assay type: in vivo; conditions: intraperitoneal
Description: C57BL/6 mice (n=6/group) were intraperitoneally injected with MSI-1 (0, 10, 20, 40, 80 and 100 mg/kg/body weight, respectively). Animals were inspected for adverse effects for 30 min, and survival was monitored for 12 h thereafter. The toxicity severity was classified as Malik U et al previously described.

With `CC[C@H](C)[C@H](NC(=O)CN)C(=O)NCC(=O)N[C@@H](C)C(=O)N[C@H](C(=O)N[C@@H](CC(C)C)C(=O)N[C@@H](CCCCN)C(=O)N[C@H](C(=O)N[C@@H](CC(C)C)C(=O)N[C@H](C(=O)N[C@H](C(=O)NCC(=O)N[C@@H](CC(C)C)C(=O)N1CCC[C@H]1C(=O)N[C@@H](C)C(=O)N[C@@H](CC(C)C)C(=O)N[C@H](C(=O)N[C@@H](CO)C(=O)N[C@@H](Cc1c[nH]c2ccccc12)C(=O)N[C@H](C(=O)N[C@@H](CCCCN)C(=O)N[C@@H](CCCNC(=N)N)C(=O)N[C@@H](CCCCN)C(=O)N[C@@H](CCCNC(=N)N)C(=O)N[C@@H](CCC(N)=O)C(=O)N[C@@H](CCC(N)=O)C(N)=O)[C@@H](C)CC)[C@@H](C)CC)[C@@H](C)O)[C@@H](C)O)C(C)C)C(C)C` [Melittin] the MBC [1] was 8 µg/mL (≈ 2.81 µM), the MIC [1] was 4 µg/mL (≈ 1.41 µM) and the MBC [2] was 8 µg/mL (≈ 2.81 µM). For the same compound, the MIC [2] was 4 µg/mL (≈ 1.41 µM), the MBC (Helicobacterpylori SS1) was 16 µg/mL (≈ 5.62 µM) and the MIC (Helicobacterpylori SS1) was 8 µg/mL (≈ 2.81 µM). For the same compound, the MBC [3] was 16 µg/mL (≈ 5.62 µM), the MIC [3] was 8 µg/mL (≈ 2.81 µM) and the MBC [4] was 8 µg/mL (≈ 2.81 µM). It also gave an MIC [4] of 4 µg/mL (≈ 1.41 µM), an MBC [5] of 32 µg/mL (≈ 11.2 µM) and an MIC [5] of 8 µg/mL (≈ 2.81 µM). The MBC [6] was 16 µg/mL (≈ 5.62 µM), the MIC [6] was 4 µg/mL (≈ 1.41 µM) and the MBC [7] was 16 µg/mL (≈ 5.62 µM). For the same compound, the MIC [7] was 8 µg/mL (≈ 2.81 µM), the MBC [8] was 16 µg/mL (≈ 5.62 µM) and the MIC [8] was 8 µg/mL (≈ 2.81 µM). For the same compound, the MBC [9] was 8 µg/mL (≈ 2.81 µM) and the MIC [9] was 4 µg/mL (≈ 1.41 µM).
With `CC[C@H](C)[C@H](NC(=O)CN)C(=O)N[C@@H](Cc1c[nH]c2ccccc12)C(=O)N[C@@H](CCCCN)C(=O)N[C@@H](Cc1ccccc1)C(=O)N[C@@H](CC(C)C)C(=O)N[C@@H](CCCCN)C(=O)N[C@@H](CCCCN)C(=O)N[C@@H](C)C(=O)N[C@@H](CCCCN)C(=O)N[C@@H](CCCCN)C(=O)N[C@@H](Cc1ccccc1)C(=O)N[C@@H](Cc1c[nH]c2ccccc12)C(N)=O` [MSI-3] (H-GIWKFLKKAKKFW-NH2) the “effect on the survival of mouse spleen cells compared with the parent peptide” value (murine spleen cells) was “significantly higher”, the deaths (C57BL/6 mice; 100 mg/kg) was “some of the mice in the MSI-3-treated group died” and the “adverse effects at approximately 5 min post injection” value (C57BL/6 mice; dose of peptide above 40 mg/kg, n=6/group) was “displayed narrowing of the eyes, one mouse was crouching and cuddling, and the other mouse showed convulsions”.

— paper PMC6956804, “Potent antibacterial activity of MSI-1 derived from the magainin 2 peptide against drug-resistant bacteria” (Theranostics, 2020)
